One cell line from the supplement of paper PMC10307832 can be followed below.

Holding throughout (experiment): relative viability (nuclei count vs DMSO), 5 days (fraction); higher = more cells survive
Compound in one test: CC1=CN2C(=O)C=C(N=C2C(=C1)C(C)NC3=CC=CC=C3)N4CCOCC4 [TGX 221]
In outline: (§1)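 Viability was read as treated-well nuclei divided by vehicle-well nuclei, using the median across plates. Lung cancer cell lines in 1536-well plates were kept overnight at 37 °C, pinned with five √10-spaced library-drug doses, and after 5 days were Hoechst-stained, imaged at 4× and counted in MetaXpress. Plates passed only with control CV below 25% and at least one doubling.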

Compound in a further test: O=C(CCCCCCNC(=O)c1cnc(N(c2ccccc2)c2ccccc2)nc1)NO [Ricolinostat]
In outline: as §1

Compound in test [1]: C1=CC=C(C(=C1)C2=CC=C(C=C2)C3=CSC4=C3C(=C(C(=O)N4)C#N)O)O
The gist of the method:
as §1

Compound in test [2]: C1=CC=C(C(=C1)C2=CC=C(C=C2)C3=CSC4=C3C(=C(C(=O)N4)C#N)O)O + N=C(N)NC(=N)NCCc1ccccc1 [Phenformin] (partner 250 µM)
The gist of the method:
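The day after seeding in 1536-well plates, lung cancer cell lines were treated by pin tool with a single drug, or with a fixed anchor-drug dose together with five library-drug doses (not always all listed) in √10 steps. After 5 days, a combined fix-and-stain solution (final 0.05% Triton X-100, 1% formaldehyde, 1 ug/ml Hoechst) was added. Nuclei counted on 4× images gave relative viability as treated counts over vehicle counts, reported as the median of duplicate plates.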

As for NCI-H1792, the relative viability with TGX 221 (0.08 µM) was 0.749; with TGX 221 (0.253 µM) it was 0.878; with TGX 221 (0.8 µM), 1; with TGX 221 (2.53 µM), 0.883; in the test with TGX 221 (8 µM), 0.864; in the test with Ricolinostat (0.08 µM), 0.599. The relative viability in the test with Ricolinostat (0.253 µM) was found to be 0.938; in the test with Ricolinostat (0.8 µM), 0.754; with Ricolinostat (2.53 µM), 0.57; in test [1] (0.253 µM), 1.01; in test [1] (0.8 µM), 0.723; in test [1] (2.53 µM) it was 0.921. The relative viability in test [1] (8 µM) was 0.446; in test [2] (first compound 0.08 µM) it was 0.113; in test [2] (first compound 0.253 µM), 0.283; in test [2] (first compound 0.8 µM) it was 0.287; in test [2] (first compound 2.53 µM), 0.36; in test [2] (first compound 8 µM) it was 0.268.
